Measurements: patent US20090246172A1, “COMPOSITIONS COMPRISING EPOTHILONES AND THEIR USE FOR THE TREATMENT OF CARCINOID SYNDROME” (priority 2001, published 2009)

Tested on: carcinoid syndrome and/or at least one neuroendocrine tumor
Assay: treatment of a human patient with epothilone B (Example 1)
Format: in vivo
Protocol: A human patient experiencing 3 loose bowel movements each day, frequent nausea and anorexia presented a plasma serotonin level of 361 ng/ml and an octreotide scan showing foci of abnormal activity in the pelvis, liver, upper chest and neck. They received 2.5 mg/m^2 of epothilone B weekly every 3 of 4 weeks.

C/C(=C\c1csc(C)n1)[C@@H]1C[C@@H]2O[C@]2(C)CCC[C@H](C)[C@H](O)[C@@H](C)C(=O)C(C)(C)[C@@H](O)CC(=O)O1 [epothilone B]
octreotide scan (2.5 mg/m^2 weekly every 3 of 4 weeks, after 6 doses plus further about two months): no evidence of disease
octreotide scan (2.5 mg/m^2 weekly every 3 of 4 weeks, after 6 doses, before treatment foci in pelvis, liver, upper chest and neck): minimal focus of activity in the pelvis alone
tumor burden of the patient (conclusion drawn from the observations in Example 1 ('make it likely')): significantly decreased
plasma serotonin level (patient, 2.5 mg/m^2 weekly every 3 of 4 weeks, 6 doses plus further about two months, level before treatment 361 ng/ml, within normal limits): 62 ng/mL
